Measured values: US5962531A, “5-aroylnaphthalene derivatives as anti-inflammatory agents” (Syntex (U.S.A.) Inc., priority 1998, dated 1999)

What was measured:
[1] = test system: PGE2; experiment: Inhibition of eicosanoid (prostaglandin E2) synthesis in vivo, carrageenan air-pouch model in rats; design: species or system rat; details: oral, male rats
Procedure: In this assay, an air-pouch is created in the rat and the PGE2 levels in the air-pouch exudate are measured by enzyme immunoassay. Briefly, male rats were anesthetized using a 60:40 CO2 :O2 mixture and subsequently injected subcutaneously with 20 ml of sterilized air, under aseptic conditions, in the proximal area of the dorsum. This injection of sterile air causes the creation of a subcutaneous "air pouch". The next day, a further 10 ml of sterile air was injected into the previously formed pouch using the same technique. […] Control rats received vehicle alone. After 30 minutes, 5 ml of a 0.5% solution of carrageenan (Sigma, Lambda Type IV) was injected into the air pouch. The rats were euthanized 3 or 6 h after the compound administration. […] The total exudate volume was recorded, and the samples were analyzed for PGE2 and 6-keto PGF1 by ELISA (Titerzyme®, PerSeptive Diagnostics, Boston, Mass.) and TxB2 by radioimmuno assay (New England Nuclear Research, Boston, Mass., Catalog No. NEK-037), according to the manufacturer's directions.
The mean concentrations of PGE2 were calculated for each group. The anti-inflammatory activity of test materials is expressed as the percent inhibition of PGE2 formation in the test group relative to the control group.

[2] = test system: Alzheimer's patients; details: Rogers, J., et. al., Neurology, 43, 1609, (1993); cited from earlier work
[3] = test system: carrageenan-induced paw edema; experiment: Inhibition of carrageenan-induced paw edema in the rat; format: in vivo; details: oral, female rats
Procedure: The anti-inflammatory activity of compounds of this invention was determined by measuring the inhibition of carrageenan-induced paw edema in the rat, using a modification of the method described in Winter C. A. et al., "Carrageenan-Induced Edema in Hind Paw of the Rat as an Assay for Anti-inflammatory Drugs" Proc. Soc. Exp. Biol. Med. 111, 544-547, (1962). This assay has been used as a primary in vivo screen for anti-inflammatoryactivity of most NSAIDs, and is considered predictive of human efficacy. Briefly, test materials were administered orally to female rats in a volume of 1 ml prepared as solutions or suspensions in an aqueous vehicle containing 0.9% sodium chloride, 0.5% sodium carboxymethyl-cellulose, 0.4% polysorbate 80, 0.9% benzyl alcohol and 97.3% distilled water. Control rats received vehicle alone. After 1 h 0.05 ml of a 0.5% solution of Carrageenan (Type IV Lambda, Sigma Chemical Co.) in 0.9% saline was injected into the subplantar region of the right hind paw. Three hours later the rats were euthanized in a carbon dioxide atmosphere; hind paws were removed by severing at the tatso-crural joint; and the left and right paws were weighed. The increase in weight of the right paw over the left paw was obtained for each animal and the mean increases were calculated for each group. The anti-inflammatory activity of the test materials is expressed as the percent inhibition of the increase in hind paw weight of the test group relative to the vehicle dosed control group.
The anti-inflammatory activities (expressed as % inhibition) of some of the compounds of the invention were: […]

[4] = molecular target: T1, COX I (Homo sapiens, UniProt P23219); experiment: Inhibition of COX I in vitro (radiometric assay, partially purified enzyme); format: biochemical
T1 construct: made in house; baculovirus-infected insect cells according to the cited Barnett et al. 1994 (own knowledge)
Procedure: (§1) The COX I and COX II inhibitory activity of compounds of this invention in vitro was determined using partially purified COX I and COX II enzymes, prepared as described in J. Barnett et. al., Biochim. Biophys.
(§2) COX I and COX II samples were diluted with Tris-HCl buffer (SOmM Tris-HCl, pH 7.9) containing 2 mM EDTA and 10% glycerol and reconstituted by incubating first with 2 mM phenol for 5 minutes and then with 1 micromolar hematin for an additional 5 minutes. 125 μl of the reconstituted COX I or COX II enzyme were preincubated for 10 minutes at room temperature in a shaking water bath with the compounds of the invention dissolved in 2-15 μl of DMSO or the carrier vehicles (control samples). The enzyme reaction was initiated by adding 25 μl of 1-[14 C]arachidonic acid (80,000-100,000 cpm/tube; 20 micromolar final concentration) and the reaction was allowed to continue for an additional 45 seconds. The reaction was terminated by adding 100 μl of 2N HCl and 750 μl water. An aliquot (950 μl) of the reaction mixture was loaded onto a 1 ml C18 Sep-Pak column (J. T. Baker, Phillipsburg, N.J.) which had been previously washed with 2-3 ml methanol and equilibrated with 5-6 ml distilled water. Oxygenated products were quantitatively eluted with 3 ml of acetonitrile/water/acetic acid (50:50:0.1, v/v) and the radioactivity in the eluate determined in a scintillation counter.

[5] = molecular target: T2, COX II (Homo sapiens, UniProt P35354); experiment: Inhibition of COX II in vitro (radiometric assay, partially purified enzyme); format: biochemical
T2 construct: made in house; baculovirus-infected insect cells according to the cited Barnett et al. 1994 (own knowledge)
T2 sequence (P35354 18-604): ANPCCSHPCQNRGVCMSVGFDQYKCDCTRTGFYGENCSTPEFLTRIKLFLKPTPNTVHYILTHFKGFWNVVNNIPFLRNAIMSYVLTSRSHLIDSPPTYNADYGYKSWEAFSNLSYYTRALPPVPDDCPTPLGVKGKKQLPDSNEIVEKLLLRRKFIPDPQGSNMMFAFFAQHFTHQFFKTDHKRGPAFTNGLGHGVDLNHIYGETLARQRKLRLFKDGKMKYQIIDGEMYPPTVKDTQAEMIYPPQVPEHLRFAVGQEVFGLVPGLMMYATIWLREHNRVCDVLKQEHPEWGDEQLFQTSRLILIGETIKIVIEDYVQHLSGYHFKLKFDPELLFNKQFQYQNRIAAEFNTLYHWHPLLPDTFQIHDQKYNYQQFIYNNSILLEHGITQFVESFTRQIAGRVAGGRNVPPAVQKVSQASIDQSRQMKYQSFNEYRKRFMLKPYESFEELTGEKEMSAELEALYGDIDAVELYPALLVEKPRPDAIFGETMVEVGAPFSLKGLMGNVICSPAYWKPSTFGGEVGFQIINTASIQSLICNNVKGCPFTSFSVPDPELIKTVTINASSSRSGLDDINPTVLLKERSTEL
Procedure: as §1, §2

T1 sequence (P23219 24-599): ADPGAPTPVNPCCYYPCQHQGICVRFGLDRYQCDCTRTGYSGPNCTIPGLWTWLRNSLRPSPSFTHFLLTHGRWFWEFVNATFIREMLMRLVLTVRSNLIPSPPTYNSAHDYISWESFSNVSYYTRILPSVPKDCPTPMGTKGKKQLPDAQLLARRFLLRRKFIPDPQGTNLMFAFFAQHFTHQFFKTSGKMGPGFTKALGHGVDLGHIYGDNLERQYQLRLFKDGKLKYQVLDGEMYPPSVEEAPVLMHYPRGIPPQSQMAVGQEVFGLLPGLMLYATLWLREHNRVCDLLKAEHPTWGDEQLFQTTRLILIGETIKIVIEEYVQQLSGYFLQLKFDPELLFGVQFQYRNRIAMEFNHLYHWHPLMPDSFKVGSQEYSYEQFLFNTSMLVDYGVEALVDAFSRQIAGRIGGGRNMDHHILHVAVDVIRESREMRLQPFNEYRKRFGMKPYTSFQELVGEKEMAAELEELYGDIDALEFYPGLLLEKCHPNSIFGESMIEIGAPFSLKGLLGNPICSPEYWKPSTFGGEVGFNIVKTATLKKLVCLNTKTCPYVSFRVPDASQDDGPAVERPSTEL

Compound | IC50 [4] | IC50 [5] | % Inhibition of paw edema ([3]; 30 mg/Kg) | further results
COc1ccc2c(c1)c(CC(=O)O)c(C)n2C(=O)c1ccc(Cl)cc1 [Indomethacin, reference compound] |  |  |  | % Inhibition of air pouch PGE2 formation ([1]; 2-5 mg/Kg): > 70%; inhibition of cognitive decline of Alzheimer's patients [2]: inhibit the cognitive decline of Alzheimer's patients
COc1ccc2cc(S(N)(=O)=O)ccc2c1C(=O)c1ccc(F)cc1 [compound 1, 5-(4-fluorobenzoyl)-6-methoxy-2-naphthalenesulfonamide] | 20 µM | 0.51 µM |  | % Inhibition of air pouch PGE2 formation ([1]; 10 mg/Kg): 92%; % Inhibition of paw edema ([3]; 10 mg/Kg): 29.94%
COc1ccc2cc(S(N)(=O)=O)ccc2c1C(=O)c1ccc(C)cc1 [compound 4, 5-(4-methylbenzoyl)-6-methoxy-2-naphthalenesulfonamide] | 2.8 µM | 0.84 µM |  | % Inhibition of air pouch PGE2 formation ([1]; 10 mg/Kg): 74.6%; % Inhibition of paw edema ([3]; 10 mg/Kg): 26.41%
CCOc1ccc2cc(S(N)(=O)=O)ccc2c1C(=O)c1ccc(F)cc1 [compound 5] | 0.46 µM | 0.56 µM | 27.49% | 
COc1ccc2cc(S(N)(=O)=O)ccc2c1C(=O)c1ccccc1F [compound 14, 5-(2-fluorobenzoyl)-6-methoxy-2-naphthalenesulfonamide] | 47.7 µM | 0.076 µM |  | % Inhibition of air pouch PGE2 formation ([1]; 10 mg/Kg): 58.8%
COc1ccc2cc(S(N)(=O)=O)ccc2c1C(=O)c1cccc(F)c1 [compound 15, 5-(3-fluorobenzoyl)-6-methoxy-2-naphthalenesulfonamide] | 62.5 µM | 0.68 µM |  | 
COc1ccc2cc(S(N)(=O)=O)ccc2c1C(=O)c1ccccc1Br [compound 17] |  |  | 19.56% | 
COc1ccc2cc(S(N)(=O)=O)ccc2c1C(=O)c1ccc(F)cc1F [compound 20] | 6 µM | 0.45 µM | 33.85% | % Inhibition of air pouch PGE2 formation ([1]; 10 mg/Kg): 100%
COc1ccc2cc(S(N)(=O)=O)ccc2c1C(=O)c1ccccc1 [compound 23, 5-benzoyl-6-methoxy-2-naphthalenesulfonamide] |  |  |  | % Inhibition of air pouch PGE2 formation ([1]; 10 mg/Kg): 70.7%
COc1ccc2cc(S(N)(=O)=O)ccc2c1C(=O)c1ccc(F)cc1C(F)(F)F [compound 42] | 40.9 µM | 2 µM |  | 
N#Cc1ccc2cc(S(N)(=O)=O)ccc2c1C(=O)c1ccc(F)cc1 [compound 64, 5-(4-fluorobenzoyl)-6-cyano-2-naphthalenesulfonamide] | 0.9 µM | 0.7 µM |  | % Inhibition of air pouch PGE2 formation ([1]; 0.5 mg/Kg): 50%; % Inhibition of paw edema ([3]; 6 mg/Kg): 30%
Cc1ccc2cc(S(N)(=O)=O)ccc2c1C(=O)c1ccc(F)cc1 [compound 65, 5-(4-fluorobenzoyl)-6-methyl-2-naphthalenesulfonamide] | 300 µM | 0.7 µM |  | % Inhibition of air pouch PGE2 formation ([1]; 2 mg/Kg): 50%; % Inhibition of paw edema ([3]; 12 mg/Kg): 30%
NS(=O)(=O)c1ccc2c(C(=O)c3ccc(F)cc3)c(Cl)ccc2c1 [compound 66, 5-(4-fluorobenzoyl)-6-chloro-2-naphthalenesulfonamide] | 100 µM | 0.3 µM |  | % Inhibition of air pouch PGE2 formation ([1]; 1 mg/Kg): 50%; % Inhibition of paw edema ([3]; 12 mg/Kg): 30%
COc1ccc2cc(S(C)(=O)=O)ccc2c1C(=O)c1ccc(F)cc1 [compound 91, 5-(4-fluorobenzoyl)-6-methoxy-2-methylsulfonylnaphthalene] | 90.8 µM | 0.92 µM |  | % Inhibition of air pouch PGE2 formation ([1]; 30 mg/Kg): 58.1%; % Inhibition of paw edema ([3]; 10 mg/Kg): 29.48%
CS(=O)(=O)c1ccc2c(C(=O)c3ccc(F)cc3)c(O)ccc2c1 [compound 92, 5-(4-fluorobenzoyl)-6-hydroxy-2-methylsulfonylnaphthalene] | 646 µM | 5.9 µM | 19.88% | 
CS(=O)(=O)c1ccc2c(C(=O)c3ccccc3)c(O)ccc2c1 [compound 93, 5-benzoyl-6-hydroxy-2-methylsulfonylnaphthalene] | 436 µM | 7.84 µM | 6.25% | 
COc1ccc2cc(S(C)(=O)=O)ccc2c1C(=O)c1ccccc1 [compound 94, 5-benzoyl-6-methoxy-2-methylsulfonylnaphthalene] | 805 µM | 2.43 µM |  | % Inhibition of air pouch PGE2 formation ([1]; 10 mg/Kg): 17.6%
CS(=O)(=O)c1ccc2c(C(=O)c3ccc(F)cc3)cccc2c1 [compound 95, 5-(4-fluorobenzoyl)-2-methylsulfonylnaphthalene] | 1000 µM | 2.73 µM | 15.5% | 
CS(=O)(=O)c1ccc2c(C(=O)c3ccc(F)cc3)c(C#N)ccc2c1 [compound 96, 5-(4-fluorobenzoyl)-6-cyano-2-methylsulfonylnaphthalene] | > 100 µM | 0.8 µM | 38% | % Inhibition of air pouch PGE2 formation ([1]; 1 mg/Kg): 90%
CS(=O)(=O)c1ccc2c(C(=O)c3ccccc3)c(C#N)ccc2c1 [compound 97, 5-benzoyl-6-cyano-2-methylsulfonylnaphthalene] | > 100 µM | 0.8 µM | 40% | % Inhibition of air pouch PGE2 formation ([1]; 3 mg/Kg): 90%
CS(=O)(=O)c1ccc2c(C(=O)c3ccccc3F)c(C#N)ccc2c1 [compound 99, 5-(2-fluorobenzoyl)-6-cyano-2-methylsulfonylnaphthalene] | > 100 µM | 0.5 µM |  | % Inhibition of air pouch PGE2 formation ([1]; 3 mg/Kg): 86%; % Inhibition of paw edema ([3]; 10 mg/Kg): 38%
CS(=O)(=O)c1ccc2c(C(=O)c3ccc(Cl)cc3)c(Cl)ccc2c1 [compound 100] | > 100 µM | 0.25 µM |  | % Inhibition of air pouch PGE2 formation ([1]; 3 mg/Kg): 63%
COc1ccc2cc(S(C)(=O)=O)ccc2c1C(=O)c1ccc(C)cc1 [compound 103] | 97 µM | 1.5 µM |  | 
CS(=O)(=O)c1ccc2c(C(=O)c3ccc(Cl)cc3)c(C#N)ccc2c1 [compound 104, 5-(4-chlorobenzoyl)-6-cyano-2-methylsulfonylnaphthalene] | 93 µM | 0.57 µM | 33% | % Inhibition of air pouch PGE2 formation ([1]; 1 mg/Kg): 76.5%
